The values that follow are results of earlier work, collected in US10010648B2, “Transdermal delivery system” (Edixomed Limited, priority 2013, dated 2018).

For data set [1] the following is noted: healthy 70 kg-adult.

The term pKa denotes the pH at which an ionisable group is half protonated. Take `C=CC(=O)O` [acrylic acid]: the pKa is given as 4.3 to 4.4.

As to `CCN(CC)CC(=O)Nc1c(C)cccc1C` [lidocaine], the “generally accepted safe dosage for topical anaesthesia” value (from here on “generally accepted safe dosage”) in data set [1] is 750 mg.

Take `CCCCNc1ccc(C(=O)OCCN(C)C)cc1` [tetracaine]: in data set [1], the “generally accepted safe dosage” value is on record as 50 mg.

For `COC(=O)[C@H]1[C@@H](OC(=O)c2ccccc2)C[C@@H]2CC[C@H]1N2C` [cocaine], the “generally accepted safe dosage” value in data set [1] is listed as 200 mg.
